Results from patent publication US20100298141A1, “SUBSTITUTED PYRIDINE N-OXIDE HERBICIDES” (E. I. DU PONT DE NEMOURS AND COMPANY, priority 2007, published 2010).

How the values were obtained:
crabgrass = assay: Test A pre-/postemergence greenhouse test; format: in vivo, Digitaria sanguinalis; conditions: for Plant response rating, Crabgrass, Large: 0 to 100 scale where 0 is no effect and 100 is complete control; for Crabgrass, Large plant response rating: 0 to 100 scale
Outline: (§1)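 Pots of loam–sand soil sown with the test species are sprayed preemergence on the soil surface; emerged seedlings (1–2 leaves, 2–10 cm) are sprayed postemergence at the same time. The vehicle is a non-phytotoxic solvent mixture with surfactant. Injury is scored visually after ~10 d in greenhouse.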

morningglory = assay: Test A pre-/postemergence greenhouse test; format: in vivo, Ipomoea spp.; conditions: for Plant response rating, Morningglory: 0 to 100 scale where 0 is no effect and 100 is complete control; for Morningglory plant response rating: 0 to 100 scale
Outline: as §1

redroot pigweed = assay: Test A pre-/postemergence greenhouse test; format: in vivo, Amaranthus retroflexus; conditions: for Plant response rating, Pigweed: 0 to 100 scale where 0 is no effect and 100 is complete control; for Pigweed plant response rating: 0 to 100 scale
Outline: as §1

blackgrass = assay: Test C pre-/postemergence test; format: in vivo, Alopecurus myosuroides; conditions: for Plant response rating, Blackgrass: 31 g ai/ha, scale 0 to 100 (0 no effect, 100 complete control)
Outline: (§2)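 Compounds in a non-phytotoxic solvent with surfactant applied preemergence to seeded pots and, at the same time, postemergence to plants 2–18 cm tall (1- to 4-leaf stage). Paddy tests: pots flooded to 3 cm, compound applied into the water, depth held throughout.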

green foxtail = assay: Test C pre-/postemergence test; format: in vivo, Setaria viridis; conditions: for Plant response rating, Foxtail, Green: 31 g ai/ha, scale 0 to 100 (0 no effect, 100 complete control)
Outline: as §2

Italian ryegrass = assay: Test C pre-/postemergence test; format: in vivo, Lolium multiflorum; conditions: for Plant response rating, Ryegrass, Italian: 31 g ai/ha, scale 0 to 100 (0 no effect, 100 complete control)
Outline: as §2

wheat = assay: Test C pre-/postemergence test; format: in vivo, Triticum aestivum; conditions: for Plant response rating, Wheat: 31 g ai/ha, scale 0 to 100 (0 no effect, 100 complete control)
Outline: as §2

wild oat = assay: Test C pre-/postemergence test; format: in vivo, Avena fatua; conditions: for Plant response rating, Oat, Wild: 31 g ai/ha, scale 0 to 100 (0 no effect, 100 complete control)
Outline: as §2

corn = assay: Test C pre-/postemergence test; format: in vivo, Zea mays; conditions: for Plant response rating, Corn: 31 g ai/ha, scale 0 to 100 (0 no effect, 100 complete control)
Outline: as §2

woolly cupgrass = assay: Test C pre-/postemergence test; format: in vivo, Eriochloa villosa; conditions: for Plant response rating, Cupgrass, Woolly: 31 g ai/ha, scale 0 to 100 (0 no effect, 100 complete control)
Outline: as §2

Goosegrass = assay: Test C pre-/postemergence test; format: in vivo, Eleusin indica; conditions: for Plant response rating, Goosegrass: 31 g ai/ha, scale 0 to 100 (0 no effect, 100 complete control)
Outline: as §2

eastern black nightshade = assay: Test C pre-/postemergence test; format: in vivo, Solanum ptycanthum
Outline: as §2

yellow nutsedge = assay: Test C pre-/postemergence test; format: in vivo, Cyperus esculentus; conditions: for Plant response rating, Nutsedge, Yellow: 31 g ai/ha, scale 0 to 100 (0 no effect, 100 complete control)
Outline: as §2

common ragweed = assay: Test C pre-/postemergence test; format: in vivo, Ambrosia elation; conditions: for Plant response rating, Ragweed: 31 g ai/ha, scale 0 to 100 (0 no effect, 100 complete control)
Outline: as §2

[1] = tested on: common (oilseed) sunflower; assay: Test C pre-/postemergence test; format: in vivo, Helianthus annuus
Outline: as §2

umbrella sedge = assay: Test C flooded paddy test; format: in vivo, Cyperus difformis; conditions: Flood
Outline: (§3)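 Pots were flooded to 3 cm above the soil surface at treatment, compound applied directly to the paddy water, and that depth held throughout. Plants were kept in a greenhouse for 13 to 15 days, then visually rated against untreated controls.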

duck salad = assay: Test C flooded paddy test; format: in vivo, Heteranthera limosa; conditions: Flood
Outline: as §3

[2] = Postemergence, 500 g ai/ha, 0 is no effect, 100 is complete control
[3] = Preemergence, 125 g ai/ha, 0 no effect, 100 complete control
[4] = 62 g ai/ha, Preemergence, scale 0 to 100
[5] = 125 g ai/ha, preemergence, scale 0 (no effect) to 100 (complete control)
[6] = preemergence, 250 g ai/ha, scale 0 (no effect) to 100 (complete control)
[7] = Preemergence, 31 g ai/ha, scale 0 to 100 (0 no effect, 100 complete control)
[8] = 62 g ai/ha, scale 0 to 100 (0 no effect, 100 complete control)
[9] = 250 g ai/ha, scale 0 to 100, 0 no effect, 100 complete control, 13 to 15 days
[10] = 31 g ai/ha, scale 0 to 100 (0 no effect, 100 complete control)
[11] = 125 g ai/ha, scale 0 to 100, 0 no effect, 100 complete control, 13 to 15 days

Cc1cc([S+]([O-])Cc2c(C(F)(F)F)nn(C)c2OCC(F)(F)F)[n+]([O-])cc1Cl (stereo not shown) [Compound 70]
Plant response rating, Crabgrass, Large (crabgrass; Postemergence, 125 g ai/ha): 50 | Crabgrass, Large plant response rating (crabgrass; [2]): 80 | Crabgrass, Large plant response rating (crabgrass; [3]): 90 | Plant response rating, Crabgrass, Large (crabgrass; Preemergence, 500 g ai/ha): 100 | Plant response rating, Morningglory (morningglory; Postemergence, 125 g ai/ha): 30 | Morningglory plant response rating (morningglory; [2]): 70 | Morningglory plant response rating (morningglory; [3]): 30 | Plant response rating, Morningglory (morningglory; Preemergence, 500 g ai/ha): 100 | Plant response rating, Pigweed (redroot pigweed; Postemergence, 125 g ai/ha): 40 | Pigweed plant response rating (redroot pigweed; [2]): 80 | Pigweed plant response rating (redroot pigweed; [3]): 90 | Plant response rating, Pigweed (redroot pigweed; Preemergence, 500 g ai/ha): 100 | Blackgrass plant response rating (blackgrass; [4]): 100 | Blackgrass plant response rating (blackgrass; [5]): 100 | Plant response rating, Blackgrass (blackgrass; Preemergence): 100 | Blackgrass plant response rating (blackgrass; [6]): 100 | Foxtail, Green plant response rating (green foxtail; [4]): 100 | Foxtail, Green plant response rating (green foxtail; [5]): 100 | Plant response rating, Foxtail, Green (green foxtail; Preemergence): 100 | Foxtail, Green plant response rating (green foxtail; [6]): 100 | Ryegrass, Italian plant response rating (Italian ryegrass; [4]): 85 | Ryegrass, Italian plant response rating (Italian ryegrass; [5]): 100 | Plant response rating, Ryegrass, Italian (Italian ryegrass; Preemergence): 85 | Ryegrass, Italian plant response rating (Italian ryegrass; [6]): 100 | Wheat plant response rating (wheat; [4]): 60 | Wheat plant response rating (wheat; [5]): 95 | Plant response rating, Wheat (wheat; Preemergence): 15 | Wheat plant response rating (wheat; [6]): 95 | Oat, Wild plant response rating (wild oat; [4]): 95 | Oat, Wild plant response rating (wild oat; [5]): 100 | Plant response rating, Oat, Wild (wild oat; Preemergence): 70 | Oat, Wild plant response rating (wild oat; [6]): 100 | Corn plant response rating (corn; [4]): 95 | Corn plant response rating (corn; [5]): 98 | Plant response rating, Corn (corn; Preemergence): 50 | Corn plant response rating (corn; [6]): 100 | Cupgrass, Woolly plant response rating (woolly cupgrass; [4]): 98 | Cupgrass, Woolly plant response rating (woolly cupgrass; [5]): 100 | Plant response rating, Cupgrass, Woolly (woolly cupgrass; Preemergence): 95 | Cupgrass, Woolly plant response rating (woolly cupgrass; [6]): 100 | Goosegrass plant response rating (Goosegrass; [4]): 100 | Goosegrass plant response rating (Goosegrass; [5]): 100 | Plant response rating, Goosegrass (Goosegrass; Preemergence): 100 | Goosegrass plant response rating (Goosegrass; [6]): 100 | Nightshade plant response rating (eastern black nightshade; [4]): 100 | Nightshade plant response rating (eastern black nightshade; [5]): 100 | Plant response rating, Nightshade (eastern black nightshade; [7]): 100 | Nightshade plant response rating (eastern black nightshade; [6]): 100 | Nutsedge, Yellow plant response rating (yellow nutsedge; [4]): 65 | Nutsedge, Yellow plant response rating (yellow nutsedge; [5]): 65 | Plant response rating, Nutsedge, Yellow (yellow nutsedge; Preemergence): 60 | Nutsedge, Yellow plant response rating (yellow nutsedge; [6]): 95 | Ragweed plant response rating (common ragweed; [4]): 80 | Ragweed plant response rating (common ragweed; [5]): 80 | Plant response rating, Ragweed (common ragweed; Preemergence): 0 | Ragweed plant response rating (common ragweed; [6]): 100 | Sunflower plant response rating [1, 4]: 45 | Sunflower plant response rating [1, 5]: 45 | Plant response rating, Sunflower [1, 7]: 0 | Sunflower plant response rating [1, 6]: 80 | Plant response rating, Sedge, Umbrella (umbrella sedge; [8]): 80 | Plant response rating, Sedge, Umbrella (umbrella sedge; [9]): 100 | Plant response rating, Ducksalad (duck salad; [8]): 85 | Plant response rating, Ducksalad (duck salad; [9]): 100

Cn1nc(C(F)(F)F)c(C[S+]([O-])c2ccc(Cl)c[n+]2[O-])c1OCC(F)F (stereo not shown) [Compound 85]
Plant response rating, Crabgrass, Large (crabgrass; Postemergence, 125 g ai/ha): 70 | Crabgrass, Large plant response rating (crabgrass; [2]): 90 | Crabgrass, Large plant response rating (crabgrass; [3]): 80 | Plant response rating, Crabgrass, Large (crabgrass; Preemergence, 500 g ai/ha): 100 | Plant response rating, Morningglory (morningglory; Postemergence, 125 g ai/ha): 70 | Morningglory plant response rating (morningglory; [2]): 90 | Morningglory plant response rating (morningglory; [3]): 60 | Plant response rating, Morningglory (morningglory; Preemergence, 500 g ai/ha): 100 | Plant response rating, Pigweed (redroot pigweed; Postemergence, 125 g ai/ha): 60 | Pigweed plant response rating (redroot pigweed; [2]): 90 | Pigweed plant response rating (redroot pigweed; [3]): 70 | Plant response rating, Pigweed (redroot pigweed; Preemergence, 500 g ai/ha): 90 | Blackgrass plant response rating (blackgrass; [4]): 100 | Blackgrass plant response rating (blackgrass; [5]): 100 | Plant response rating, Blackgrass (blackgrass; Preemergence): 100 | Blackgrass plant response rating (blackgrass; [6]): 100 | Foxtail, Green plant response rating (green foxtail; [4]): 100 | Foxtail, Green plant response rating (green foxtail; [5]): 100 | Plant response rating, Foxtail, Green (green foxtail; Preemergence): 100 | Foxtail, Green plant response rating (green foxtail; [6]): 100 | Ryegrass, Italian plant response rating (Italian ryegrass; [4]): 90 | Ryegrass, Italian plant response rating (Italian ryegrass; [5]): 90 | Plant response rating, Ryegrass, Italian (Italian ryegrass; Preemergence): 80 | Ryegrass, Italian plant response rating (Italian ryegrass; [6]): 100 | Wheat plant response rating (wheat; [4]): 50 | Wheat plant response rating (wheat; [5]): 70 | Plant response rating, Wheat (wheat; Preemergence): 50 | Wheat plant response rating (wheat; [6]): 100 | Oat, Wild plant response rating (wild oat; [4]): 80 | Oat, Wild plant response rating (wild oat; [5]): 85 | Plant response rating, Oat, Wild (wild oat; Preemergence): 80 | Oat, Wild plant response rating (wild oat; [6]): 100 | Corn plant response rating (corn; [4]): 95 | Corn plant response rating (corn; [5]): 98 | Plant response rating, Corn (corn; Preemergence): 95 | Corn plant response rating (corn; [6]): 99 | Cupgrass, Woolly plant response rating (woolly cupgrass; [4]): 95 | Cupgrass, Woolly plant response rating (woolly cupgrass; [5]): 95 | Plant response rating, Cupgrass, Woolly (woolly cupgrass; Preemergence): 80 | Cupgrass, Woolly plant response rating (woolly cupgrass; [6]): 100 | Goosegrass plant response rating (Goosegrass; [4]): 100 | Goosegrass plant response rating (Goosegrass; [5]): 100 | Plant response rating, Goosegrass (Goosegrass; Preemergence): 100 | Goosegrass plant response rating (Goosegrass; [6]): 100 | Nightshade plant response rating (eastern black nightshade; [4]): 85 | Nightshade plant response rating (eastern black nightshade; [5]): 100 | Nightshade plant response rating (eastern black nightshade; [6]): 100 | Nutsedge, Yellow plant response rating (yellow nutsedge; [4]): 40 | Nutsedge, Yellow plant response rating (yellow nutsedge; [5]): 40 | Plant response rating, Nutsedge, Yellow (yellow nutsedge; Preemergence): 40 | Nutsedge, Yellow plant response rating (yellow nutsedge; [6]): 95 | Ragweed plant response rating (common ragweed; [4]): 100 | Ragweed plant response rating (common ragweed; [5]): 100 | Plant response rating, Ragweed (common ragweed; Preemergence): 100 | Ragweed plant response rating (common ragweed; [6]): 100 | Sunflower plant response rating [1, 4]: 30 | Sunflower plant response rating [1, 5]: 50 | Sunflower plant response rating [1, 6]: 80 | Plant response rating, Sedge, Umbrella (umbrella sedge; [10]): 0 | Plant response rating, Sedge, Umbrella (umbrella sedge; [8]): 45 | Plant response rating, Sedge, Umbrella (umbrella sedge; [11]): 60 | Plant response rating, Sedge, Umbrella (umbrella sedge; [9]): 95 | Plant response rating, Ducksalad (duck salad; [10]): 35 | Plant response rating, Ducksalad (duck salad; [8]): 45 | Plant response rating, Ducksalad (duck salad; [11]): 75 | Plant response rating, Ducksalad (duck salad; [9]): 80
